Legend:
Format in all cases: cell-based
[1] = system: mixed bacterial inoculum (Pseudomonas aeruginosa, Enterobacter cloacae, Escherichia coli, Acinetobacter calcoaceticus); test: Repeated inoculation of standard acrylic paint, streak plate rating
Protocol: In the following experiments, a pyrithione, an isothiazolinone, and a biocide enhancing agent in accordance with the present disclosure were combined with a standard acrylic paint. The concentrations of the pyrithione, the isothiazolinone and the biocide enhancing agent were varied. The pyrithione, the isothiazolinone and the biocide enhancing agent were added alone and in various mixtures to the standard acrylic paint.
The acrylic paint was then inoculated three times using a mixed bacterial inoculum. The bacterial inoculum, which comprised a bacterial suspension in water, contained the following four bacteria in equal proportions.
The samples were streak plated at 24, 48, and 72 hours after inoculation. The streak plates were rated as follows;

[2] = system: Pseudomonas aeruginosa ATCC 15442; test: Minimum Inhibitory Concentration (MIC) test, 96 well microtiter plate; details: single chemical
Protocol: Microorganisms: Pseudomonas aeruginosa ATCC 15442
(§1) MIC set up: A 96 well microtiter plate Minimum Inhibitory Concentration (MIC) test was run in broth suitable for the test organism. Serially diluted actives were prepared in sterilized water, and the start-up concentration varied depending on the efficacy range. Inocula prepared in 2× suitable broth was added into each well, and the final concentrations of bacteria were adjusted to approximately 5×10^5.

[3] = system: Staphylococcus aureus; test: MIC test, 96 well microtiter plate; details: single chemical
Protocol: as §1
(§2) Further MIC tests were conducted using different amine compounds in combination with a pyrithione and two different isothiazolinones. The procedures described in Example No. 1 were used.

[4] = system: Escherichia coli; test: MIC test, 96 well microtiter plate; details: single chemical
Protocol: as §1, §2

[5] = system: Aspergillus brasiliensis; test: MIC test, 96 well microtiter plate; details: single chemical
Protocol: as §1, §2

[6] = system: Candida albicans; test: MIC test, 96 well microtiter plate; details: single chemical
Protocol: as §1, §2

[7] = system: Aureobasidium pullulans; test: MIC test, 96 well microtiter plate; details: single chemical
Protocol: as §1, §2

Compound: O=c1[nH]sc2ccccc12 [BIT, 1,2 Benzisothiazolin-3-one]
- streak plate rating ([1]; Set Five, BIT 50 ppm, 1st inoculation 24 h): 5 (>45 viable microorganisms Severely contaminated)
- streak plate rating ([1]; Set Five, BIT 50 ppm, 1st inoculation 48 h): 5 (>45 viable microorganisms Severely contaminated)
- streak plate rating ([1]; Set Five, BIT 50 ppm, 1st inoculation 72 h): 5 (>45 viable microorganisms Severely contaminated)
- streak plate rating ([1]; Set Five, BIT 50 ppm, 2nd inoculation 24 h): 5 (>45 viable microorganisms Severely contaminated)
- streak plate rating ([1]; Set Five, BIT 50 ppm, 2nd inoculation 48 h): 5 (>45 viable microorganisms Severely contaminated)
- streak plate rating ([1]; Set Five, BIT 50 ppm, 2nd inoculation 72 h): 5 (>45 viable microorganisms Severely contaminated)
- streak plate rating ([1]; Set Five, BIT 50 ppm, 3rd inoculation 24 h): 5 (>45 viable microorganisms Severely contaminated)
- streak plate rating ([1]; Set Five, BIT 50 ppm, 3rd inoculation 48 h): 5 (>45 viable microorganisms Severely contaminated)
- streak plate rating ([1]; Set Five, BIT 50 ppm, 3rd inoculation 72 h): 5 (>45 viable microorganisms Severely contaminated)
- streak plate rating ([1]; Set Four, BIT 50 ppm, 1st inoculation 24 h): 5 (>45 viable microorganisms Severely contaminated)
- streak plate rating ([1]; Set Four, BIT 50 ppm, 1st inoculation 48 h): 5 (>45 viable microorganisms Severely contaminated)
- streak plate rating ([1]; Set Four, BIT 50 ppm, 1st inoculation 72 h): 5 (>45 viable microorganisms Severely contaminated)
- streak plate rating ([1]; Set Four, BIT 50 ppm, 2nd inoculation 24 h): 5 (>45 viable microorganisms Severely contaminated)
- streak plate rating ([1]; Set Four, BIT 50 ppm, 2nd inoculation 48 h): 5 (>45 viable microorganisms Severely contaminated)
- streak plate rating ([1]; Set Four, BIT 50 ppm, 2nd inoculation 72 h): 5 (>45 viable microorganisms Severely contaminated)
- streak plate rating ([1]; Set Four, BIT 50 ppm, 3rd inoculation 24 h): 5 (>45 viable microorganisms Severely contaminated)
- streak plate rating ([1]; Set Four, BIT 50 ppm, 3rd inoculation 48 h): 5 (>45 viable microorganisms Severely contaminated)
- streak plate rating ([1]; Set Four, BIT 50 ppm, 3rd inoculation 72 h): 5 (>45 viable microorganisms Severely contaminated)
- streak plate rating ([1]; Set One, BIT 60 ppm, 1st inoculation 24 h): 5 (>45 viable microorganisms Severely contaminated)
- streak plate rating ([1]; Set One, BIT 60 ppm, 1st inoculation 48 h): 5 (>45 viable microorganisms Severely contaminated)
- streak plate rating ([1]; Set One, BIT 60 ppm, 1st inoculation 72 h): 5 (>45 viable microorganisms Severely contaminated)
- streak plate rating ([1]; Set One, BIT 60 ppm, 2nd inoculation 24 h): 5 (>45 viable microorganisms Severely contaminated)
- streak plate rating ([1]; Set One, BIT 60 ppm, 2nd inoculation 48 h): 5 (>45 viable microorganisms Severely contaminated)
- streak plate rating ([1]; Set One, BIT 60 ppm, 3rd inoculation 24 h): 5 (>45 viable microorganisms Severely contaminated)
- streak plate rating ([1]; Set One, BIT 60 ppm, 3rd inoculation 48 h): 5 (>45 viable microorganisms Severely contaminated)
- streak plate rating ([1]; Set One, BIT 60 ppm, 3rd inoculation 72 h): 5 (>45 viable microorganisms Severely contaminated)
- streak plate rating ([1]; Set One, BIT 120 ppm, 1st inoculation 24 h): 1 (1-5 viable microorganisms Very lightly contaminated)
- streak plate rating ([1]; Set One, BIT 120 ppm, 1st inoculation 48 h): 3 (16-30 viable microorganisms Moderately contaminated)
- streak plate rating ([1]; Set One, BIT 120 ppm, 1st inoculation 72 h): 3 (16-30 viable microorganisms Moderately contaminated)
- streak plate rating ([1]; Set One, BIT 120 ppm, 2nd inoculation 24 h): 5 (>45 viable microorganisms Severely contaminated)
- streak plate rating ([1]; Set One, BIT 120 ppm, 2nd inoculation 48 h): 5 (>45 viable microorganisms Severely contaminated)
- streak plate rating ([1]; Set One, BIT 120 ppm, 3rd inoculation 24 h): 5 (>45 viable microorganisms Severely contaminated)
- streak plate rating ([1]; Set One, BIT 120 ppm, 3rd inoculation 48 h): 5 (>45 viable microorganisms Severely contaminated)
- streak plate rating ([1]; Set One, BIT 120 ppm, 3rd inoculation 72 h): 5 (>45 viable microorganisms Severely contaminated)
- streak plate rating ([1]; Set Three, BIT 50 ppm, 1st inoculation 24 h): 5 (>45 viable microorganisms Severely contaminated)
- streak plate rating ([1]; Set Three, BIT 50 ppm, 1st inoculation 48 h): 5 (>45 viable microorganisms Severely contaminated)
- streak plate rating ([1]; Set Three, BIT 50 ppm, 1st inoculation 72 h): 5 (>45 viable microorganisms Severely contaminated)
- streak plate rating ([1]; Set Three, BIT 50 ppm, 2nd inoculation 24 h): 5 (>45 viable microorganisms Severely contaminated)
- streak plate rating ([1]; Set Three, BIT 50 ppm, 2nd inoculation 48 h): 5 (>45 viable microorganisms Severely contaminated)
- streak plate rating ([1]; Set Three, BIT 50 ppm, 2nd inoculation 72 h): 5 (>45 viable microorganisms Severely contaminated)
- streak plate rating ([1]; Set Three, BIT 50 ppm, 3rd inoculation 24 h): 5 (>45 viable microorganisms Severely contaminated)
- streak plate rating ([1]; Set Three, BIT 50 ppm, 3rd inoculation 48 h): 5 (>45 viable microorganisms Severely contaminated)
- streak plate rating ([1]; Set Three, BIT 50 ppm, 3rd inoculation 72 h): 5 (>45 viable microorganisms Severely contaminated)
- streak plate rating ([1]; Set Two, BIT 25 ppm, 1st inoculation 24 h): 5 (>45 viable microorganisms Severely contaminated)
- streak plate rating ([1]; Set Two, BIT 25 ppm, 1st inoculation 48 h): 5 (>45 viable microorganisms Severely contaminated)
- streak plate rating ([1]; Set Two, BIT 25 ppm, 1st inoculation 72 h): 5 (>45 viable microorganisms Severely contaminated)
- streak plate rating ([1]; Set Two, BIT 25 ppm, 2nd inoculation 24 h): 5 (>45 viable microorganisms Severely contaminated)
- streak plate rating ([1]; Set Two, BIT 25 ppm, 2nd inoculation 48 h): 5 (>45 viable microorganisms Severely contaminated)
- streak plate rating ([1]; Set Two, BIT 25 ppm, 2nd inoculation 72 h): 5 (>45 viable microorganisms Severely contaminated)
- streak plate rating ([1]; Set Two, BIT 25 ppm, 3rd inoculation 24 h): 5 (>45 viable microorganisms Severely contaminated)
- streak plate rating ([1]; Set Two, BIT 25 ppm, 3rd inoculation 48 h): 5 (>45 viable microorganisms Severely contaminated)
- streak plate rating ([1]; Set Two, BIT 25 ppm, 3rd inoculation 72 h): 5 (>45 viable microorganisms Severely contaminated)
- streak plate rating ([1]; Set Two, BIT 50 ppm, 1st inoculation 24 h): 5 (>45 viable microorganisms Severely contaminated)
- streak plate rating ([1]; Set Two, BIT 50 ppm, 1st inoculation 48 h): 5 (>45 viable microorganisms Severely contaminated)
- streak plate rating ([1]; Set Two, BIT 50 ppm, 1st inoculation 72 h): 5 (>45 viable microorganisms Severely contaminated)
- streak plate rating ([1]; Set Two, BIT 50 ppm, 2nd inoculation 24 h): 5 (>45 viable microorganisms Severely contaminated)
- streak plate rating ([1]; Set Two, BIT 50 ppm, 2nd inoculation 48 h): 5 (>45 viable microorganisms Severely contaminated)
- streak plate rating ([1]; Set Two, BIT 50 ppm, 2nd inoculation 72 h): 5 (>45 viable microorganisms Severely contaminated)
- streak plate rating ([1]; Set Two, BIT 50 ppm, 3rd inoculation 24 h): 5 (>45 viable microorganisms Severely contaminated)
- streak plate rating ([1]; Set Two, BIT 50 ppm, 3rd inoculation 48 h): 5 (>45 viable microorganisms Severely contaminated)
- streak plate rating ([1]; Set Two, BIT 50 ppm, 3rd inoculation 72 h): 5 (>45 viable microorganisms Severely contaminated)
- Minimum Inhibitory Concentration [2]: 32.5 ppm
- Minimum Inhibitory Concentration [3]: 8.1 ppm
- Minimum Inhibitory Concentration [4]: 6.1 ppm
- Minimum Inhibitory Concentration [5]: 32.5 ppm
- Minimum Inhibitory Concentration [6]: 8.1 ppm
- Minimum Inhibitory Concentration [7]: 4.1 ppm

Reference: patent publication US10721934B2, “Enhanced preservative” (Arch Chemicals, Inc., priority 2013, dated 2020)
